Test results as given in ChEMBL document CHEMBL5244256, “Selenium as an interesting option for the treatment of Chagas disease: A review” (Eur J Med Chem, 2020).

What was measured:
[1] = tested on: Leishmania infantum; test: Antileishmanial activity against Leishmania infantum MCAN/ES/89/IPZ229/1/89 amastigotes assessed as reduction in parasite growth incubated for 24 hrs by flow cytometry analysis; assay type: functional, organism-based; details: MCAN/ES/89/IPZ229/1/89, 24 h
[2] = tested on: Leishmania infantum; test: Antileishmanial activity against Leishmania infantum MCAN/ES/89/IPZ229/1/89 promastigotes assessed as reduction in parasite growth incubated for 24 hrs by flow cytometry analysis; assay type: functional, organism-based; details: MCAN/ES/89/IPZ229/1/89, 24 h
[3] = Selectivity ratio of IC50 for cytotoxicity against human THP-1 cells to IC50 for Antileishmanial activity against Leishmania infantum MCAN/ES/89/IPZ229/1/89 amastigotes; assay type: toxicity, cell-based; details: read-out: Ratio IC50
[4] = tested on: Trypanosoma cruzi; test: Trypanocidal activity against Trypanosoma cruzi Y strain amastigotes measured after 48 hrs; assay type: functional, organism-based
[5] = Selectivity ratio of IC50 for cytotoxicity against mouse J774.1 cells to IC50 for Trypanocidal activity against Trypanosoma cruzi Tulahuen 2 strain; assay type: toxicity, cell-based; details: read-out: Ratio IC50
[6] = tested on: Trypanosoma cruzi; test: Trypanocidal activity against Trypanosoma cruzi Y strain; assay type: functional, organism-based
[7] = tested on: Trypanosoma cruzi; test: Trypanocidal activity against Trypanosoma cruzi Y strain measured after 24 hrs; assay type: functional, organism-based
[8] = tested on: Trypanosoma cruzi; test: Potency index, ratio of test compound IC50 to Benznidazole IC50 for Trypanocidal activity against Trypanosoma cruzi Y strain measured after 24 hrs; assay type: functional
[9] = tested on: Trypanosoma cruzi; test: Trypanocidal activity against Trypanosoma cruzi Y strain epimastigotes measured after 72 hrs; assay type: functional, organism-based
[10] = Selectivity ratio of IC50 for cytotoxicity against human MRC5 cells to IC50 for Trypanocidal activity against Trypanosoma cruzi Tulahuen CL2 strain; assay type: toxicity, cell-based; details: read-out: Ratio IC50

Question: With `C[Se]/C(=N/C(=O)c1cccnc1)NC(=O)c1cccnc1` as the compound, how does the IC50 [1] read?
Answer: Its IC50 is 3.03 µM.

Question: And the IC50 [2]?
Answer: The IC50 was 3.74 µM.

Question: What about the selectivity ratio [3] of the same compound?
Answer: The selectivity ratio was 4.

Question: For `CCNC(=O)SCCOc1ccc(Oc2ccccc2)cc1`, which IC50 [4] is on record?
Answer: The IC50 was 7.88 µM.

Question: With `O=C(CS/C(C(=O)c1ccc2ccccc2c1)=C1\C=C(c2ccc(O)cc2)SS1)c1ccc2ccccc2c1` as the compound, how does the selectivity ratio at 48 h [5] read?
Answer: The selectivity ratio at 48 h was 12.8.

Question: With `Cc1cccc([Se]C2CC3=C(OC2(C)C)c2ccccc2C(=O)C3=O)c1` (stereo not given) as the compound, how does the IC50 [6] read?
Answer: The IC50 was 1680 µM.

Question: For `COc1cccc([Se]C2CC3=C(OC2(C)C)c2ccccc2C(=O)C3=O)c1` (stereo not given), which IC50 [6] is on record?
Answer: Its IC50 is 208 µM.

Question: Which IC50 [7] does the source give for `COc1ccccc1/C=C/C=N/NC(N)=S` here?
Answer: Its IC50 is 0.4 µM.

Question: For `CC1(C)OC2=C(CC1[Se]c1cccc(Cl)c1)C(=O)C(=O)c1ccccc12` (stereo not given), which IC50 [6] is on record?
Answer: The IC50 was 360 µM.

Question: With `CC1(C)OC2=C(CC1[Se]c1cccc(Br)c1)C(=O)C(=O)c1ccccc12` (stereo not given) as the compound, how does the IC50 [6] read?
Answer: Its IC50 is 477 µM.

Question: Which IC50 [6] does the source give for `CC1(C)OC2=C(CC1[Se]c1ccc(C(F)(F)F)cc1)C(=O)C(=O)c1ccccc12` (stereo not given) here?
Answer: Its IC50 is 54.9 µM.

Question: And the “Ratio IC50” value [8]?
Answer: The value was 2.

Question: For `CC(C)=CCC/C(C)=C/COc1ccc(CCN(C)C(=O)/C=C/S(C)(=O)=O)cc1`, which IC50 [9] is on record?
Answer: Its IC50 is 1.23 µM.

Question: With `CCOc1cccc2sc(N(Cc3cccnc3)C(=O)C3CCCCC3)nc12` as the compound, how does the selectivity ratio [10] read?
Answer: Its selectivity ratio is > 200.

Question: With `O=C(Cn1ccnc1[N+](=O)[O-])NCc1ccccc1` [BENZNIDAZOLE] as the compound, how does the IC50 [6] read?
Answer: The IC50 was 104 µM.
